# Measured values reported in patent US20060100199A1, “Novel condensed imidazole derivatives” (priority 2003, published 2006).
# pIC50: −log10 of the molar value. Where a name gives a salt, the structure may show the parent alone.
# Key:
# [1] = target: T1, Porcine kidney-derived DPP-IV (Sus scrofa, UniProt P22411); assay: DPPIV-inhibiting activity assay; assay type: biochemical; details: Gly-Pro-p-nitroanilide 0.33 mM, reaction time 20 minutes, absorbance at 405 nm
# T1 construct: Porcine kidney-derived DPP-IV was dissolved in a reaction buffer; from tissue; host or cells: porcine kidney
# Protocol: DPPIV-Inhibiting Activity Assay
# Porcine kidney-derived DPP-IV was dissolved in a reaction buffer (50 mM Tris-HCl (pH 7.4)/0.1% BSA) at a concentration of 10 mg/ml. After 110 μl of this solution had been combined with 15 μl of an agent, the mixture was incubated at room temperature for 20 minutes. 25 μl of 2 mM Gly-Pro-p-nitroanilide was added (to a final concentration of 0.33 mM) to the solution to initiate the enzyme reaction. The reaction time was 20 minutes. 25 μl of 1N phosphoric acid solution was added to the reaction solution to quench the reaction.
# male C57BL/6N mice = assay: Acceptable timing of administration in in vivo test; details: oral, simultaneously with vs one hour before glucose loading (2 g/kg); improvement factor for glucose tolerance compared
# Protocol: Acceptable Timing of Administration in in vivo Test
# The respective tests described below were carried out in combination with the in vivo test (administration before 0.5 hour) as described in Assay Example 2:
# 1. A test compound is administered simultaneously with glucose loading (2 g/kg) (the test compound is suspended in an aqueous solution of 0.5% methyl cellulose; the solution is combined with an equal volume of a glucose solution; and the mixture is administered orally at a dose of 10 ml/kg);
# 2. A test compound is administered one hour before glucose loading (2 g/kg) (the test compound suspended in an aqueous solution of 0.5% methyl cellulose is administered orally one hour before the oral administration of the glucose solution; each is given orally at a dose of 10 ml/kg).
# The improvement factor for glucose tolerance is estimated in each test.
# CYP3A4 = target: T2, CYP3A4 (Homo sapiens, UniProt P08684); assay: Assessment for drug-metabolizing enzyme (cytochrome P450), CYP3A4; assay type: in vitro ADME; details: recombinant P450, fluorescent substrate BFC
# T2 construct: purchased GENTEST Corp
# Protocol: (§1) <Assessment for Drug-Metabolizing Enzyme (Cytochrome P450)>
# (§2) The experimental conditions used are shown below. The fluorescence intensity was determined using a plate reader (CYTO FLUOR Multi-Well Plate Reader Series 4000; PerSeptive Biosystems Corp.). The degree of inhibition was determined as a mean value from nine independent assays […] using as an index the intensity fluorescence emitted from the metabolite of the fluorescent substrate.
# (§3) The substrates, metabolites, inhibitors, excitation wavelengths, and fluorescence wavelengths used in the assay are shown in Table 2.
# CYP2C19 = target: T3, CYP2C19 (Homo sapiens, UniProt P33261); assay: Assessment for drug-metabolizing enzyme (cytochrome P450), CYP2C19; assay type: in vitro ADME; details: recombinant P450, fluorescent substrate CEC
# T3 construct: purchased GENTEST Corp
# Protocol: as §1, §2, §3
# fasted male Wistar rats = assay: Effect on the blood glucose level of fasted male Wistar rats (in vivo test); details: oral dose of 10-30 (mg/kg); 0.5, 1 and 3 hours after administration; compared with control group treated with the medium alone
# Protocol: Purpose: Effect of a Test Compound on the Blood Glucose Level of Fasted Male Wistar Rats
# Animal: male Wistar rats (purchased from Charles River Japan, Inc.)
# A test compound was suspended in 0.5% methyl cellulose (MC) solution and administered orally at a dose of 5 mL/kg. The control group was treated with a 0.5% MC solution. The solution was administered orally at a dose of 5 mL/kg.
# Immediately before administering a test compound or 0.5% MC solution, and 0.5, 1, and 3 hours after the administration, without anesthetic the caudal vein was lightly cut with a razor blade to let the blood out. 10 μL of blood was collected and combined with 140 μL of 0.6 M perchloric acid solution. The sample was centrifuged at 3000 g at 4° C. for 10 minutes and the resultant supernatant was assayed with the Glucose CII TEST WAKO (Wako Pure Chemical Industries).
# CYP1A2 = target: T4, CYP1A2 (Homo sapiens, UniProt P05177); assay: Assessment for drug-metabolizing enzyme (cytochrome P450), CYP1A2; assay type: in vitro ADME; details: recombinant P450, fluorescent substrate CEC
# T4 construct: purchased GENTEST Corp
# T4 sequence (P05177 1-516): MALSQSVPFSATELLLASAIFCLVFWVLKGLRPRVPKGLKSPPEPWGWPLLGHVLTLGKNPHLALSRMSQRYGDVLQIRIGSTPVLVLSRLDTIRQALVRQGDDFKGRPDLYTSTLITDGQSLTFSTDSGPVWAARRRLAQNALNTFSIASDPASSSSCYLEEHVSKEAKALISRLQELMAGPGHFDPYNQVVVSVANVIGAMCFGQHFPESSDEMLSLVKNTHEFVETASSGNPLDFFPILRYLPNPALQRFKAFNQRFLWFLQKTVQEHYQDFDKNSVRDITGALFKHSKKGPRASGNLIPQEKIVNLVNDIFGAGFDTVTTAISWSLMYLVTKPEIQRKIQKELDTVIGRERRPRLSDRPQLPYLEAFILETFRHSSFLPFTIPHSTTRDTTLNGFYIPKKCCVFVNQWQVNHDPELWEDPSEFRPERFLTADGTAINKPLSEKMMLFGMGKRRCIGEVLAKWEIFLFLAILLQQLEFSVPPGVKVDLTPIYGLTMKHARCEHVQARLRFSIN
# Protocol: as §1, §2, §3
# hERG channel = target: T5, hERG channel (Homo sapiens, UniProt Q12809); assay: Suppression of hERG channel current; assay type: cell-based; details: HEK-293 cells with hERG channel gene (subtype 1), patch clamp, peak tail current at −50 mV
# T5 construct: expressed in transfected cells; host or cells: HEK-293 cells (cell line established by the inventors)
# Protocol: <Suppression of hERG Channel Current>
# (1) Activity towards inhibiting the hERG channel current was evaluated according to the report Zhou, Z et al, Biophysical Journal, 74(1), 230-241 (1998).
# (2) This experiment was carried out using HEK-293 cells into which the hERG channel gene (subtype 1) had been introduced (the cell line was established by the inventors).
# (3) One to several days before the experiment, cells were plated on a poly-lysine-coated glass plate. The cells were cultured until the day of the experiment. At the start of the experiment, the cell-seeded glass plate was transferred into a bath for current measurement. The hERG channel current was measured by the voltage clamp method using the patch clamp technique. The current was measured using a current amplifier (Axon Instruments). The current was recorded and analyzed using pCLAMP software (Axon Instruments).
# (4) The hERG channel current was induced by applying to the cells a depolarizing pulse from a holding potential of −80 mV to +20 mV for 5 seconds and to −50 mV for 4 seconds, at 20 second intervals. After the current became stable in a control solution, the cells were perfused with solutions containing various concentrations of test compounds.
# (5) The amplitude of the hERG channel current was defined as the peak value of the tail current observed upon restoring the potential to −50 mV. The inhibiting effect of a test compound on the hERG channel current (IC50) was estimated based on the change in the peak value of tail current upon addition of the test compound at various concentrations. The peak value of tail current recorded for a normal solution was taken as 100%.
# CYP2D6 = target: T6, CYP2D6 (Homo sapiens, UniProt P10635); assay: Assessment for drug-metabolizing enzyme (cytochrome P450), CYP2D6; assay type: in vitro ADME; details: recombinant P450, fluorescent substrate AMMC
# T6 construct: purchased GENTEST Corp
# Protocol: as §1, §2, §3
# CYP2C9 = target: T7, CYP2C9 (Homo sapiens, UniProt P11712); assay: Assessment for drug-metabolizing enzyme (cytochrome P450), CYP2C9; assay type: in vitro ADME; details: recombinant P450, fluorescent substrate MFC
# T7 construct: purchased GENTEST Corp
# Protocol: as §1, §2, §3
# T2 sequence (P08684 whole entry): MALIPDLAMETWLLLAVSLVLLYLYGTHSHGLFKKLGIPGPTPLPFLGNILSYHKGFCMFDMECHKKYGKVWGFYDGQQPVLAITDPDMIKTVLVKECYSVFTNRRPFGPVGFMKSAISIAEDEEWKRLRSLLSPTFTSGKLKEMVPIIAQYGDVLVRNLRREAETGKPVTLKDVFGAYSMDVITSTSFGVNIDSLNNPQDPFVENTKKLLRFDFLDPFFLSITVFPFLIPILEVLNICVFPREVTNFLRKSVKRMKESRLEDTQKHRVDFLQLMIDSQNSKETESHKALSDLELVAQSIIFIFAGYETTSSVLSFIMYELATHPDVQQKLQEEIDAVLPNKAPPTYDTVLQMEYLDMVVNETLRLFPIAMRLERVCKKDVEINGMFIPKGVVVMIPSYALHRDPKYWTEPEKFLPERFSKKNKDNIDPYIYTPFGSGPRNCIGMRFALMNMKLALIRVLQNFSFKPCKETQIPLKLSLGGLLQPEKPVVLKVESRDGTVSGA
# T1 sequence (P22411 whole entry): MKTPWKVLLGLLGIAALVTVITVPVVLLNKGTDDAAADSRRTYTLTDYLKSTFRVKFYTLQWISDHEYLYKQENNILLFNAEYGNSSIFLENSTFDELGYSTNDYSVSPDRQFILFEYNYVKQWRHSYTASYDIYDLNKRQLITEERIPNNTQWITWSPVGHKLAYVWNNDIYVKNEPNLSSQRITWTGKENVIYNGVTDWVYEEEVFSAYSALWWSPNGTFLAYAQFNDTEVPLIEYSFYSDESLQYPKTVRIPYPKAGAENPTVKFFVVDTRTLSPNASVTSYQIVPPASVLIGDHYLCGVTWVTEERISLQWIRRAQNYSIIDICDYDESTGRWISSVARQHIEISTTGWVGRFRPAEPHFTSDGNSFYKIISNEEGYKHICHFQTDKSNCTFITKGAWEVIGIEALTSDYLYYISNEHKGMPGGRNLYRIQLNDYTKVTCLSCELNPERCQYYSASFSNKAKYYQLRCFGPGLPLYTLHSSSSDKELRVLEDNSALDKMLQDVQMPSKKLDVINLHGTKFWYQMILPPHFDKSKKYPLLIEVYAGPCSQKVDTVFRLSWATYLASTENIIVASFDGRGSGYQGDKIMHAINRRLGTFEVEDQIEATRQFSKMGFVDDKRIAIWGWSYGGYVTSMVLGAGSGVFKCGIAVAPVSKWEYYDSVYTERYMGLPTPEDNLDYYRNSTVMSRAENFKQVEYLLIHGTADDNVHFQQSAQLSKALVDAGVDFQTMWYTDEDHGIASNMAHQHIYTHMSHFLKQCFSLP
# T6 sequence (P10635 whole entry): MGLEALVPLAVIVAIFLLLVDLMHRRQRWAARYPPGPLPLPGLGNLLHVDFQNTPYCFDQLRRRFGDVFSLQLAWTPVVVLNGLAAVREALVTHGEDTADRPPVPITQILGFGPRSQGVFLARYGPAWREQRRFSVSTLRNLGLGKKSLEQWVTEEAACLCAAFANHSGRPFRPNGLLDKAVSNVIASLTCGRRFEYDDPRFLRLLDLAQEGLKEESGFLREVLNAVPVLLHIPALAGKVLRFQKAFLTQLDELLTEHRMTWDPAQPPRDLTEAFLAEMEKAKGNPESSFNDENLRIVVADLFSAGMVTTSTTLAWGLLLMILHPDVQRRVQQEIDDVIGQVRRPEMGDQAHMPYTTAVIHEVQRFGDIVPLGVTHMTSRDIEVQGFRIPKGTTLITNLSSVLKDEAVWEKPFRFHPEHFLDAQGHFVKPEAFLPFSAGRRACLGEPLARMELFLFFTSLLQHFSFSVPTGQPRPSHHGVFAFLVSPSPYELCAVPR
# T3 sequence (P33261 whole entry): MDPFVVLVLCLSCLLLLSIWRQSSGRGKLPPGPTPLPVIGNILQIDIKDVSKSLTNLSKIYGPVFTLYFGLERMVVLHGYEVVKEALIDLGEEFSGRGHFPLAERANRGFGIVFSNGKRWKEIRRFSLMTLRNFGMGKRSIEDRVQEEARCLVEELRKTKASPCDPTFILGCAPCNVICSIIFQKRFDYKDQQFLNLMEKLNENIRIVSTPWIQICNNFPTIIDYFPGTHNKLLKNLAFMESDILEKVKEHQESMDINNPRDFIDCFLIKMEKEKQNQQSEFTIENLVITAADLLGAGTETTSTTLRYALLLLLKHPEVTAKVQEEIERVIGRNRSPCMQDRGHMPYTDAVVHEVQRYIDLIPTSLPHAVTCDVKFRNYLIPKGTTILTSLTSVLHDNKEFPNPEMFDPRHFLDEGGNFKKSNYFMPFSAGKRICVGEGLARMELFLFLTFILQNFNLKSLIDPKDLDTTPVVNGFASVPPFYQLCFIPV
# T7 sequence (P11712 whole entry): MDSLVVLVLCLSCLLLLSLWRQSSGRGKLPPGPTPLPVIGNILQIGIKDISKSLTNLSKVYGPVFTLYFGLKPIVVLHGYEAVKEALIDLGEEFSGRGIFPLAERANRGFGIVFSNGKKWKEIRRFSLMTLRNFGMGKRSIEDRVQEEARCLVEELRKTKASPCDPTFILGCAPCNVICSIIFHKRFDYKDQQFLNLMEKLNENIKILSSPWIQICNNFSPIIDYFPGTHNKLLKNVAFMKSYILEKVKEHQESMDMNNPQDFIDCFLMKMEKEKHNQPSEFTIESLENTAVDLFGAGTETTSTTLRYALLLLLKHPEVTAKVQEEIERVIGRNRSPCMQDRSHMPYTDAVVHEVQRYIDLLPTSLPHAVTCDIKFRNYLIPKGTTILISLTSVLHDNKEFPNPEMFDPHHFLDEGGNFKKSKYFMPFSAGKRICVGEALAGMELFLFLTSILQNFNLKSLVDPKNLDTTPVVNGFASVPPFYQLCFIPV
# T5 sequence (Q12809 whole entry): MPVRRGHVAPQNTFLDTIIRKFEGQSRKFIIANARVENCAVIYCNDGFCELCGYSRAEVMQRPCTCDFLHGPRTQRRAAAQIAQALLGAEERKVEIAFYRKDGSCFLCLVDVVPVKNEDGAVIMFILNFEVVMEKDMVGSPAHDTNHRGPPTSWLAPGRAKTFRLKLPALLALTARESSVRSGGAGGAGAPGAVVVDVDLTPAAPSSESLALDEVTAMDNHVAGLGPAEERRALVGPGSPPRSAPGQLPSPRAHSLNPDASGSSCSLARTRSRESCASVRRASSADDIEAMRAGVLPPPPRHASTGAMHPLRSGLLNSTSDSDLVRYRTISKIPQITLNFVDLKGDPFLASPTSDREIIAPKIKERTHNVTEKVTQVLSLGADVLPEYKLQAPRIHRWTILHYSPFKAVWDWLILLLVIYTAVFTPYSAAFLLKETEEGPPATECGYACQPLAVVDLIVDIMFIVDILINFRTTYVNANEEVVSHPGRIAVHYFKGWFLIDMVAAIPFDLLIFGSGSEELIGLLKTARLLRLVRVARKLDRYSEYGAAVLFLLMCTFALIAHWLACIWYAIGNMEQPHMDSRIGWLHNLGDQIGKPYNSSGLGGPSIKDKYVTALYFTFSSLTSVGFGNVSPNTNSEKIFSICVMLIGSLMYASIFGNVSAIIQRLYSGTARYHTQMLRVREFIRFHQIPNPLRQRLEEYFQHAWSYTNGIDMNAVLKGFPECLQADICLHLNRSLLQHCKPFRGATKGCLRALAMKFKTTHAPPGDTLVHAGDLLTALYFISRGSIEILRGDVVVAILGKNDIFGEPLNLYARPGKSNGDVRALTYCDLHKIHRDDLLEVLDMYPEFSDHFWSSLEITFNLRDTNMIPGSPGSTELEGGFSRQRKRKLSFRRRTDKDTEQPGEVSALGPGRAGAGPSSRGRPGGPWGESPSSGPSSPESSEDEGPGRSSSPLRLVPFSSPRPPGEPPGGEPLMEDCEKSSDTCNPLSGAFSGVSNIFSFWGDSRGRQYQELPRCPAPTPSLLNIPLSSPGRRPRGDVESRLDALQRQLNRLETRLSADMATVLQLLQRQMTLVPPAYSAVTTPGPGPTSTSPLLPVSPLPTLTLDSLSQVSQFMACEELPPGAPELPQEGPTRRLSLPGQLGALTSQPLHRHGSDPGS
pIC50 [1],pIC50 (CYP3A4),pIC50 (CYP2C19),pIC50 (CYP1A2),pIC50 (CYP2D6),pIC50 (CYP2C9),SMILES,range of acceptable timing of administration (male C57BL/6N mice),change in the blood glucose level (fasted male Wistar rats),pIC50 (hERG channel)
6.68,,,,,,"CC#CCn1c(N2CCNCC2)nc2nc(Oc3ccccc3CC(=O)OC)n(C)c(=O)c21 [Example 4, Methyl 2-[7-(2-butynyl)-1-methyl-6-oxo-8-(piperazin-1-yl)-6,7-dihydro-1H-purin-2-yloxy]phenylacetate trifluoroacetate]",,,
,≤ 5.00,≤ 5.00,≤ 5.00,≤ 5.00,≤ 5.00,"CC#CCn1c(N2CCNCC2)nc2nc(C#N)n(C)c(=O)c21.O=C(O)C(F)(F)F [Example 82, 7-(2-Butynyl)-2-cyano-1-methyl-8-(piperazin-1-yl)-1,7-dihydropurin-6-one trifluoroacetate]",sufficiently wide ranges of acceptable timing of administration,no significant change,≤ 4.52
7.56,,,,,,"CC#CCn1c(N2CCNCC2)nc2nc(C(N)=O)n(C)c(=O)c21 [Example 83, 7-(2-Butynyl)-1-methyl-6-oxo-8-(piperazin-1-yl)-6,7-dihydro-1H-purine-2-carboxamide]",,,
,≤ 5.00,≤ 5.00,≤ 5.00,≤ 5.00,≤ 5.00,"CC#CCn1c(N2CCNCC2)nc2cnn(C)c(=O)c21 [Example 119, 3-(2-Butynyl)-5-methyl-2-(piperazin-1-yl)-3,5-dihydroimidazo[4,5-d]pyridazin-4-one]",sufficiently wide ranges of acceptable timing of administration,no significant change,≤ 4.52
,≤ 5.00,≤ 5.00,≤ 5.00,≤ 5.00,≤ 5.00,"CC#CCn1c(N2CCCC(N)C2)nc2cnn(C)c(=O)c21.O=C(O)C(F)(F)F (centres unmarked) [Example 120, 2-(3-Aminopiperidin-1-yl)-3-(2-butynyl)-5-methyl-3,5-dihydroimidazo[4,5-d]pyridazin-4-one trifluoroacetate]",sufficiently wide ranges of acceptable timing of administration,no significant change,≤ 4.52
7.82,≤ 5.00,≤ 5.00,≤ 5.00,≤ 5.00,≤ 5.00,"CC#CCn1c(N2CCNCC2)nc2nc(Oc3ccccc3C(N)=O)n(C)c(=O)c21 [Example 122, 2-[7-(2-Butynyl)-1-methyl-6-oxo-8-(piperazin-1-yl)-6,7-dihydro-1H-purin-2-yloxy]benzamide]",sufficiently wide ranges of acceptable timing of administration,no significant change,≤ 4.52
,≤ 5.00,≤ 5.00,≤ 5.00,≤ 5.00,≤ 5.00,"CC#CCn1c(N2CCNCC2)nc2nc(C#N)n(Cc3ccccc3C#N)c(=O)c21.Cl [Example 229, 7-(2-Butynyl)-1-(2-cyanobenzyl)-6-oxo-8-(piperazin-1-yl)-6,7-dihydro-1H-purine-2-carbonitrile hydrochloride]",sufficiently wide ranges of acceptable timing of administration,no significant change,≤ 4.52
8.84,,,,,,"CC#CCn1c(N2CCNCC2)nc2nc(Oc3ccccc3C(N)=O)n(Cc3ccc(C#N)cc3)c(=O)c21 [Example 235, 2-[7-(2-Butynyl)-1-(4-cyanobenzyl)-6-oxo-8-(piperazin-1-yl)-6,7-dihydro-1H-purin-2-yloxy]benzamide trifluoroacetate]",,,
,≤ 5.00,≤ 5.00,≤ 5.00,≤ 5.00,≤ 5.00,"CC#CCn1c(N2CCNCC2)nc2cnn(Cc3ccccc3C#N)c(=O)c21.O=C(O)C(F)(F)F [Example 267, 2-[3-(2-Butynyl)-4-oxo-2-(piperazin-1-yl)-3,4-dihydroimidazo[4,5-d]pyridazin-5-ylmethyl]benzonitrile trifluoroacetate]",sufficiently wide ranges of acceptable timing of administration,no significant change,≤ 4.52

SMILES,pIC50 [1],pIC50 (CYP3A4),pIC50 (CYP2C19),pIC50 (CYP1A2),pIC50 (CYP2D6),pIC50 (CYP2C9),range of acceptable timing of administration (male C57BL/6N mice),change in the blood glucose level (fasted male Wistar rats),pIC50 (hERG channel)
"CC#CCn1c(N2CCNCC2)nc2nc(Oc3ccccc3C(N)=O)n(Cc3cccc(C#N)c3)c(=O)c21 [Example 238, 2-[7-(2-Butynyl)-1-(3-cyanobenzyl)-6-oxo-8-(piperazin-1-yl)-6,7-dihydro-1H-purin-2-yloxy]benzamide trifluoroacetate]",8.92,,,,,,,,
